# Laboratory results reported in patent US9540350B2, “1-substituted, 4-(substituted phenoxymethyl)-1,2,3-triazole compounds with antifungal properties and methods for preparation thereof” (FDC LIMITED, priority 2013, dated 2017).
# Read-outs that look alike come from different tables or passages of the source.
# What was measured:
# C. neoformans ATCC 34664 = assay: Antifungal susceptibility, broth dilution MIC (CLSI M27-A2); assay type: cell-based, Cryptococcus neoformans; details: Cryptococcus neoformans, read-out: Activity against organisms (MIC50) Cn01
# Description: (§1) The compounds of Formula 1 were tested for antifungal activity against Candida albicans, C. glabrata, C. krusei, C. tropicalis, Cryptococcus neoformans, Aspergillus fumigatus, A. niger and Fusarium proliferatum. In vitro evaluation of antifungal activity was performed by determining the minimum inhibitory concentration (MIC) following standard methods (CLSI: Reference method for broth dilution antifungal susceptibility testing of yeasts; Approved standard, second edition M27-A2, 2002; CLSI: Reference method for broth dilution antifungal susceptibility testing of filamentous fungi; Approved standard M38-A, 2002). Anti-fungal susceptibility testing of these anti-fungal compounds was done by broth dilution method using RPMI 1640 medium with MOPS buffer. Known anti-fungal agent fluconazole was used as positive control. End points were determined after 48 hours visually and by using spectrophotometer wherever necessary. Different dilutions were tried and various sets of experiments performed. The activity parameters are enumerated in Table 4.
# C. glabrata ATCC 90030 = assay: as above; assay type: cell-based, Candida glabrata; details: Nakaseomyces glabratus, read-out: Activity against organisms (MIC50) Cg01
# Description: as §1
# C. krusei ATCC 6258 = assay: as above; assay type: cell-based, Candida krusei; details: Pichia kudriavzevii, read-out: Activity against organisms (MIC50) Ck01
# Description: as §1
# C. albicans ATCC 24433 = assay: as above; assay type: cell-based; details: Candida albicans, read-out: Activity against organisms (MIC50) Ca01
# Description: as §1
# [1] = test system: F. proliferatum ATCC 10052; assay: Antifungal susceptibility, broth dilution MIC (CLSI M38-A); assay type: cell-based; details: Fusarium proliferatum, read-out: Activity against organisms (MIC50) Fp01
# Description: as §1
# A. fumigatus ATCC 46645 = assay: as above; assay type: cell-based; details: Aspergillus fumigatus, read-out: Activity against organisms (MIC50) Afm01
# Description: as §1
# A. niger ATCC 16404 = assay: as above; assay type: cell-based; details: Aspergillus niger, read-out: Activity against organisms (MIC50) An01
# Description: as §1
# C. tropicalis ATCC 750 = assay: Antifungal susceptibility, broth dilution MIC (CLSI M27-A2); assay type: cell-based, Candida tropicalis; details: Candida tropicalis, read-out: Activity against organisms (MIC50) Ct01
# Description: as §1
# [2] = ATCC34664, C. neoformans ATCC 34664, broth dilution, RPMI 1640 with MOPS, 48 hours
# [3] = ATCC90030, C. glabrata ATCC 90030, broth dilution, RPMI 1640 with MOPS, 48 hours
# [4] = ATCC6258, C. krusei ATCC 6258, broth dilution, RPMI 1640 with MOPS, 48 hours
# [5] = ATCC24433, C. albicans ATCC 24433, broth dilution, RPMI 1640 with MOPS, 48 hours
# [6] = ATCC10052, F. proliferatum ATCC 10052, broth dilution, RPMI 1640 with MOPS, 48 hours
# [7] = ATCC46645, A. fumigatus ATCC 46645, broth dilution, RPMI 1640 with MOPS, 48 hours
# [8] = ATCC16404, A. niger ATCC 16404, broth dilution, RPMI 1640 with MOPS, 48 hours
# [9] = ATCC750, C. tropicalis ATCC 750, broth dilution, RPMI 1640 with MOPS, 48 hours
Compound,"MIC50 (C. neoformans ATCC 34664; ATCC34664, 48 h)","MIC50 (C. glabrata ATCC 90030; ATCC90030, 48 h)","MIC50 (C. krusei ATCC 6258; ATCC6258, 48 h)","MIC50 (C. albicans ATCC 24433; ATCC24433, 48 h)","MIC50 ([1]; ATCC10052, 48 h)","MIC50 (A. fumigatus ATCC 46645; ATCC46645, 48 h)","MIC50 (A. niger ATCC 16404; ATCC16404, 48 h)","MIC50 (C. tropicalis ATCC 750; ATCC750, 48 h)",MIC50 (C. neoformans ATCC 34664; [2]),MIC50 (C. glabrata ATCC 90030; [3]),MIC50 (C. krusei ATCC 6258; [4]),MIC50 (C. albicans ATCC 24433; [5]),"MIC50 [1, 6]",MIC50 (A. fumigatus ATCC 46645; [7]),MIC50 (A. niger ATCC 16404; [8]),MIC50 (C. tropicalis ATCC 750; [9])
"CC(=O)/C=C/c1ccc(OCc2cn(CC(O)(Cn3cncn3)c3ccc(F)cc3F)nn2)cc1 (centres unmarked) [Compound 1B-3, (E)-4-(4-((1-(2-(2,4-Difluorophenyl)-2-hydroxy-3-(1H-1,2,4-triazol-1-yl)propyl)-1H-1,2,3-triazol-4-yl)methoxy)phenyl)but-3-en-2-one]",2 µg/mL,0.5 µg/mL,16 µg/mL,0.12 µg/mL,> 64 µg/mL,> 64 µg/mL,> 64 µg/mL,1 µg/mL,,,,,,,,
"O=C(/C=C/c1ccc(OCc2cn(CC(O)(Cn3cncn3)c3ccc(F)cc3F)nn2)cc1)C1CC1 (centres unmarked) [Compound 1B-4, (E)-1-(Cyclopropyl)-3-(4-((1-(2-(2,4-difluorophenyl)-2-hydroxy-3-(1H-1,2,4-triazol-1-yl)propyl)-1H-1,2,3-triazol-4-yl)methoxy)phenyl)prop-2-en-1-one]",,,,,,,,,1 µg/mL,0.5 µg/mL,> 32 µg/mL,0.12 µg/mL,> 32 µg/mL,> 32 µg/mL,> 32 µg/mL,2 µg/mL
"CCCN1CCN(c2ccc(C(=O)/C=C/c3ccc(OCc4cn(CC(O)(Cn5cncn5)c5ccc(F)cc5F)nn4)cc3)cc2)CC1 (centres unmarked) [Compound 1B-5, (E)-3-(4-((1-(2-(2,4-Difluorophenyl)-2-hydroxy-3-(1H-1,2,4-triazol-1-yl)propyl)-1H-1,2,3-triazol-4-yl)methoxy)phenyl)-1-(4-(4-propylpiperazin-1-yl)phenyl)prop-2-en-1-one]",,,,,,,,,1 µg/mL,0.5 µg/mL,> 4 µg/mL,0.06 µg/mL,> 4 µg/mL,> 4 µg/mL,> 4 µg/mL,0.5 µg/mL
"CCCCN1CCN(c2ccc(C(=O)/C=C/c3ccc(OCc4cn(CC(O)(Cn5cncn5)c5ccc(F)cc5F)nn4)cc3)cc2)CC1 (centres unmarked) [Compound 1B-6, (E)-1-(4-(4-n-Butylpiperazin-1-yl)phenyl)-3-(4-((1-(2-(2,4-difluorophehyl)-2-hydroxy-3-(1H-1,2,4-triazol-1-yl)propyl)-1H-1,2,3-triazol-4-yl)methoxy)phenyl)prop-2-en-1-one]",,,,,,,,,1 µg/mL,0.5 µg/mL,> 4 µg/mL,0.12 µg/mL,> 4 µg/mL,> 4 µg/mL,> 4 µg/mL,0.5 µg/mL
"CCCCCN1CCN(c2ccc(C(=O)/C=C/c3ccc(OCc4cn(CC(O)(Cn5cncn5)c5ccc(F)cc5F)nn4)cc3)cc2)CC1 (centres unmarked) [Compound 1B-7, (E)-3-(4-((1-(2-(2,4-Difluorophenyl)-2-hydroxy-3-(1H-1,2,4-triazol-1-yl)propyl)-1H-1,2,3-triazol-4-yl)methoxy)phenyl)-1-(4-(4-n-pentylpiperazin-1-yl)phenyl)-prop-2-en-1-one]",,,,,,,,,2 µg/mL,0.5 µg/mL,8 µg/mL,0.5 µg/mL,> 2 µg/mL,> 2 µg/mL,> 2 µg/mL,2 µg/mL
"COc1ccc(CN2CCN(c3ccc(C(=O)/C=C/c4ccc(OCc5cn(CC(O)(Cn6cncn6)c6ccc(F)cc6F)nn5)cc4)cc3)CC2)cc1 (centres unmarked) [Compound 1B-8, (E)-3-(4-((1-(2-(2,4-Difluorophenyl)-2-hydroxy-3-(1H-1,2,4-triazol-1-yl)propyl)-1H-1,2,3-triazol-4-yl)methoxy)phenyl)-1-(4-(4-(4-methoxybenzyl)piperazin-1-yl)phenyl)prop-2-en-1-one]",,,,,,,,,0.5 µg/mL,0.12 µg/mL,2 µg/mL,0.12 µg/mL,> 8 µg/mL,> 8 µg/mL,> 8 µg/mL,0.5 µg/mL
"C=C=CCOc1ccc(/C=C/C(=O)/C=C/c2ccc(OCc3cn(CC(O)(Cn4cncn4)c4ccc(F)cc4F)nn3)cc2)cc1 (centres unmarked) [Compound 1B-9, (1E,4E)-1-(4-(Buta-2,3-dienyloxy)phenyl)-5-(4-((1-(2-(2,4-difluorophenyl)-2-hydroxy-3-(1H-1,2,4-triazol-1-yl)propyl)-1H-1,2,3-triazol-4-yl)methoxy)phenyl)penta-1,4-dien-3-one]",,,,,,,,,0.25 µg/mL,0.5 µg/mL,2 µg/mL,0.25 µg/mL,> 2 µg/mL,> 2 µg/mL,> 2 µg/mL,1 µg/mL
